Reference: ChEMBL document CHEMBL1139671, “Nuphar alkaloids with immediately apoptosis-inducing activity from Nuphar pumilum and their structural requirements for the activity” (2006)
The source made the active and inactive calls. The rule behind the calls is not given here.

Key:
U-937 [1] = test: Cytotoxicity against U937 cells at 10 uM after 72 hrs; format: functional; conditions: Homo sapiens, U-937, 72 h
HT-1080 [2] = test: Cytotoxicity against HT1080 cells at 10 uM after 72 hrs; format: functional; conditions: Homo sapiens, HT-1080, 72 h
U-937 [3] = test: Cytotoxicity against U937 cells at 1.0 uM after 72 hrs; format: functional; conditions: Homo sapiens, U-937, 72 h
B16-F10 [4] = test: Cytotoxicity against B16F10 cells at 1.0 uM after 72 hrs; format: functional; conditions: Mus musculus, B16-F10, 72 h
HT-1080 [5] = test: Cytotoxicity against HT1080 cells at 1.0 uM after 72 hrs; format: functional; conditions: Homo sapiens, HT-1080, 72 h
HT-1080 [6] = test: Cytotoxicity against HT1080 cells at 0.1 uM after 72 hrs; format: functional; conditions: Homo sapiens, HT-1080, 72 h
B16-F10 [7] = test: Cytotoxicity against B16F10 cells at 0.1 uM after 72 hrs; format: functional; conditions: Mus musculus, B16-F10, 72 h
B16-F10 [8] = test: Cytotoxicity against B16F10 cells at 10 uM after 72 hrs; format: functional; conditions: Mus musculus, B16-F10, 72 h
HT-1080 [9] = test: Cytotoxicity against HT1080 cells at 0.1 uM after 24 hrs; format: functional; conditions: Homo sapiens, HT-1080, 24 h
U-937 [10] = test: Induction of apoptosis in U937 cells by DNA fragmentation assay; format: functional, cell-based; conditions: Homo sapiens
B16-F10 [11] = test: Cytotoxicity against B16F10 cells at 10 uM after 48 hrs; format: functional; conditions: Mus musculus, B16-F10, 48 h
B16-F10 [12] = test: Cytotoxicity against B16F10 cells at 10 uM after 24 hrs; format: functional; conditions: Mus musculus, B16-F10, 24 h
U-937 [13] = test: Cytotoxicity against U937 cells at 1.0 uM after 24 hrs; format: functional; conditions: Homo sapiens, U-937, 24 h
U-937 [14] = test: Cytotoxicity against U937 cells at 10 uM after 48 hrs; format: functional; conditions: Homo sapiens, U-937, 48 h
HT-1080 [15] = test: Cytotoxicity against HT1080 cells at 10 uM after 24 hrs; format: functional; conditions: Homo sapiens, HT-1080, 24 h
HT-1080 [16] = test: Cytotoxicity against HT1080 cells at 0.1 uM after 48 hrs; format: functional; conditions: Homo sapiens, HT-1080, 48 h
HT-1080 [17] = test: Cytotoxicity against HT1080 cells at 1.0 uM after 48 hrs; format: functional; conditions: Homo sapiens, HT-1080, 48 h
HT-1080 [18] = test: Cytotoxicity against HT1080 cells at 10 uM after 48 hrs; format: functional; conditions: Homo sapiens, HT-1080, 48 h
B16-F10 [19] = test: Cytotoxicity against B16F10 cells at 0.1 uM after 48 hrs; format: functional; conditions: Mus musculus, B16-F10, 48 h
U-937 [20] = test: Cytotoxicity against U937 cells at 10 uM after 24 hrs; format: functional; conditions: Homo sapiens, U-937, 24 h
U-937 [21] = test: Cytotoxicity against U937 cells at 1.0 uM after 48 hrs; format: functional; conditions: Homo sapiens, U-937, 48 h
B16-F10 [22] = test: Cytotoxicity against B16F10 cells at 1.0 uM after 48 hrs; format: functional; conditions: Mus musculus, B16-F10, 48 h
HT-1080 [23] = test: Cytotoxicity against HT1080 cells at 1.0 uM after 24 hrs; format: functional; conditions: Homo sapiens, HT-1080, 24 h
B16-F10 [24] = test: Cytotoxicity against B16F10 cells at 1.0 uM after 24 hrs; format: functional; conditions: Mus musculus, B16-F10, 24 h

C[C@@H]1CC[C@@H](c2ccoc2)N2C[C@@]3(CC[C@@H]12)C[S+]([O-])[C@]1(CC[C@H]2[C@H](C)CC[C@@H](c4ccoc4)N2C1)C3 (some centres not stated)
inhibition at 10 µM (U-937 [1]): 6.3% | inhibition at 10 µM (HT-1080 [2]): -4.4% | inhibition at 1 µM (U-937 [3]): 4.7% | inhibition at 1 µM (B16-F10 [4]): 3.2% | inhibition at 1 µM (HT-1080 [5]): -8.1% | inhibition at 0.1 µM (HT-1080 [6]): -6.1% | inhibition at 0.1 µM (B16-F10 [7]): 10.4% | inhibition at 10 µM (B16-F10 [8]): 10.8%

C[C@@H]1CC[C@@H](c2ccoc2)N2C[C@@]3(CC[C@@H]12)CS[C@@]1(CC[C@H]2[C@H](C)CC[C@@H](c4ccoc4)N2[C@@H]1O)C3
inhibition at 0.1 µM (HT-1080 [9]): 1.8% | Activity (U-937 [10]): Active | inhibition at 10 µM (B16-F10 [11]): 97.3% | inhibition at 10 µM (U-937 [1]): 94.3% | inhibition at 10 µM (HT-1080 [2]): 99.2% | inhibition at 10 µM (B16-F10 [12]): 88.6% | inhibition at 1 µM (U-937 [3]): -1% | inhibition at 1 µM (B16-F10 [4]): 20.8% | inhibition at 1 µM (U-937 [13]): 3.6% | inhibition at 1 µM (HT-1080 [5]): 15.7% | inhibition at 10 µM (U-937 [14]): 92.5% | inhibition at 0.1 µM (HT-1080 [6]): 5.4% | inhibition at 10 µM (HT-1080 [15]): 96.1% | inhibition at 0.1 µM (HT-1080 [16]): 1.6% | inhibition at 1 µM (HT-1080 [17]): 8.3% | inhibition at 10 µM (HT-1080 [18]): 97.5% | inhibition at 0.1 µM (B16-F10 [19]): 10.3% | inhibition at 10 µM (U-937 [20]): 83.2% | inhibition at 1 µM (U-937 [21]): 1.3% | inhibition at 0.1 µM (B16-F10 [7]): 11.1% | inhibition at 1 µM (B16-F10 [22]): 27.3% | inhibition at 10 µM (B16-F10 [8]): 98.7% | inhibition at 1 µM (HT-1080 [23]): 14%

C[C@@H]1CC[C@@H](c2ccoc2)N2[C@H]1CC[C@@]1(CS[C@@]3(CC[C@H]4[C@H](C)CC[C@@H](c5ccoc5)N4[C@@H]3O)C1)[C@H]2O
inhibition at 10 µM (B16-F10 [11]): 51.8% | inhibition at 10 µM (U-937 [1]): 81.6% | inhibition at 10 µM (HT-1080 [2]): 75.3% | inhibition at 10 µM (B16-F10 [12]): 16.6% | inhibition at 1 µM (U-937 [3]): 1.3% | inhibition at 1 µM (B16-F10 [4]): -6% | inhibition at 1 µM (U-937 [13]): 5.3% | inhibition at 1 µM (HT-1080 [5]): -0.9% | inhibition at 10 µM (U-937 [14]): 80% | inhibition at 0.1 µM (HT-1080 [6]): 0.1% | inhibition at 10 µM (HT-1080 [15]): 19.3% | inhibition at 0.1 µM (HT-1080 [16]): 9% | inhibition at 1 µM (HT-1080 [17]): 0.5% | inhibition at 10 µM (HT-1080 [18]): 75% | inhibition at 0.1 µM (B16-F10 [19]): -8% | inhibition at 10 µM (U-937 [20]): 54.7% | inhibition at 1 µM (U-937 [21]): 2.3% | inhibition at 0.1 µM (B16-F10 [7]): -3.5% | inhibition at 1 µM (B16-F10 [22]): -15% | inhibition at 10 µM (B16-F10 [8]): 54.8%

C[C@@H]1CC[C@@H](c2ccoc2)N2C[C@]3(CC[C@@H]12)C[S+]([O-])[C@]1(CC[C@H]2[C@H](C)CC[C@@H](c4ccoc4)N2C1)C3 (some centres not stated)
inhibition at 10 µM (U-937 [1]): 10% | inhibition at 10 µM (HT-1080 [2]): 6.8% | inhibition at 1 µM (U-937 [3]): 5.8% | inhibition at 1 µM (B16-F10 [4]): 7.7% | inhibition at 1 µM (HT-1080 [5]): -1.8% | inhibition at 0.1 µM (HT-1080 [6]): -0.4% | inhibition at 0.1 µM (B16-F10 [7]): -3.7% | inhibition at 10 µM (B16-F10 [8]): 9.1%

C[C@@H]1CC[C@@H](c2ccoc2)N2C[C@@]3(CC[C@@H]12)C[C@]1(CC[C@H]2[C@H](C)CC[C@@H](c4ccoc4)N2[C@@H]1O)CS3 [6'-HYDROXYTHIONUPHLUTINE B]
inhibition at 10 µM (U-937 [1]): 0.5% | inhibition at 10 µM (HT-1080 [2]): -9.1% | inhibition at 1 µM (U-937 [3]): 0.1% | inhibition at 1 µM (B16-F10 [4]): -1.6% | inhibition at 1 µM (HT-1080 [5]): -7.3% | inhibition at 0.1 µM (HT-1080 [6]): -9.8% | inhibition at 0.1 µM (B16-F10 [7]): 1.7% | inhibition at 10 µM (B16-F10 [8]): -4.8%

C[C@@H]1CC[C@@H](c2ccoc2)N2C[C@@]3(CC[C@@H]12)CS[C@]1(CC[C@H]2[C@H](C)CC[C@@H](c4ccoc4)N2[C@@H]1O)C3 [6-HYDROXYTHIONUPHLUTINE B]
inhibition at 0.1 µM (HT-1080 [9]): 6.3% | inhibition at 1 µM (B16-F10 [24]): -22.9% | inhibition at 10 µM (B16-F10 [11]): 98.2% | inhibition at 10 µM (U-937 [1]): 94.1% | inhibition at 10 µM (HT-1080 [2]): 98.7% | inhibition at 10 µM (B16-F10 [12]): 91.5% | inhibition at 1 µM (U-937 [3]): 85.3% | inhibition at 1 µM (B16-F10 [4]): 69.3% | inhibition at 1 µM (U-937 [13]): 74.6% | inhibition at 1 µM (HT-1080 [5]): 63.5% | inhibition at 10 µM (U-937 [14]): 91.3% | inhibition at 0.1 µM (HT-1080 [6]): 1% | inhibition at 10 µM (HT-1080 [15]): 95.9% | inhibition at 0.1 µM (HT-1080 [16]): 8.6% | inhibition at 1 µM (HT-1080 [17]): 53.3% | inhibition at 10 µM (HT-1080 [18]): 98% | inhibition at 0.1 µM (B16-F10 [19]): 0.3% | inhibition at 10 µM (U-937 [20]): 80% | inhibition at 1 µM (U-937 [21]): 89% | inhibition at 0.1 µM (B16-F10 [7]): 0.9% | inhibition at 1 µM (B16-F10 [22]): 65% | inhibition at 10 µM (B16-F10 [8]): 99.1% | inhibition at 1 µM (HT-1080 [23]): 42%

C[C@@H]1CC[C@H]2[C@H](C)CC[C@@H](c3ccoc3)N2C1 [(-)-7-EPI-DEOXYNUPHARIDINE]
inhibition at 10 µM (U-937 [1]): 8% | inhibition at 10 µM (HT-1080 [2]): -10.1% | inhibition at 1 µM (U-937 [3]): 6.4% | inhibition at 1 µM (B16-F10 [4]): -9.8% | inhibition at 1 µM (HT-1080 [5]): -6.6% | inhibition at 0.1 µM (B16-F10 [7]): -1.5% | inhibition at 10 µM (B16-F10 [8]): -7.9%
